This is an account of results in patent publication US20100234417A1, “THYROTROPIN RELEASING HORMONE RECEPTOR-OREXIN RECEPTOR HETERO-DIMERS/-OLIGOMERS” (DIMERIX BIOSCIENCE PTY LTD., priority 2006, published 2010).

Ends that are not written are not given here.

The test system of this assay is TRHR335 with TRHR. Briefly: eBRET: TRHR335/Rluc + EGFP/barr1 + TRHR as IG3. The class given is cell-based. Particulars: FIG. 9. The text has this:
Briefly, referring to FIGS. 1 to 3, the IGs are provided in the form of the two receptors (TRHR and OxR). One of the two is attached to an RC (IG1-RC1, IG3). A second IG (IG2-RC2) is derived from a molecule that interacts with the receptors upon ligand binding (e.g. beta-arrestin, or a mutant thereof). The detection system not only detects the formation of the TRHR-OxR heterodimer but can distinguish whether a ligand or drug acts as an agonist, partial agonist, antagonist, inverse agonist or partial inverse agonist at the receptor hetero-dimer.
Cells were seeded in 6-well plates at a density of approximately 630,000 cells/well (HEK293FT) or approximately 150,000 cells/well (COS-7) and maintained at 37° C., 5% CO2 in Complete Media (DMEM containing 0.3 mg/ml glutamine, 100 IU/ml penicillin and 100 μg/ml streptomycin (Gibco)) supplemented with 10% fetal calf serum (FCS; Gibco). […] BRET measurements were taken at 37° C. using the Victor Light plate reader with Wallac 1420 software (Perkin-Elmer). Filtered light emissions were sequentially measured for 3-5 s in each of the ‘donor wavelength window’ (400-475 nm) and ‘acceptor wavelength window’ (>500 nm for EGFP or 520-540 nm for EYFP, Topaz (TYFP) or Venus). […] Unless otherwise stated, BRET signals were measured in 96-well microplates. […]

“OxA: orexin A; known orexin receptor modulator, used as IG3 ligand (modulator) (QPLPDCCRQKTCSCRLYELLHGAGNHAAGILTL; ends and bridges not checked; cysteine pairing not given here; UniProt O43612 34-66, looked up)”: the eBRET signal entry was “no eBRET signal above baseline”.
